The record followed here is patent US9464064B2, “HCV helicase inhibitors and methods of use thereof” (University of Kansas, priority 2011, dated 2016).

Like-named read-outs stand apart in the source and are kept apart here.

Test [1] relates to HCV RLuc subgenomic replicon (genotype 1b) in Huh-7.5 cells. The experiment in a line: HCV subgenomic replicon assay (Renilla luciferase). Type of test: cell-based, hepatitis C virus. The following applies: Hepatitis C virus. An excerpt: An HCV Renilla luciferase reporter construct (HCV RLuc; Huang, et al. (2006) Hepatology 43:81-90) was used to measure the effect of each compound on cellular HCV RNA levels. In HCV RLuc, the HCV internal ribosome entry site (IRES) drives the translation of the neomycin and Renilla luciferase genes while the HCV nonstructural proteins (NS3 to NS5B) are translated from the Encephalomyocarditis virus IRES (Huang, et al. (2006) supra). The plasmid DNA was cleaved with ScaI, purified by phenol/chloroform extraction followed by ethanol precipitation, and used as template for RNA transcription using […] T7 RNA transcription kit (Ambion, Austin, Tex.). The RNA transcripts were treated with 2 U DNase I (Ambion) at 37° C. for 30 minutes, purified by acid phenol/chloroform extraction, followed by isopropanol precipitation, and suspended in diethylpyrocarbonate-treated water. RNA concentration was determined by spectrophotometry by measuring the A260. RNA integrity and size was checked on 1% agarose gel. Transcribed RNA was stored in aliquots at −80° C. until needed.
Huh-7.5 cells were transfected with HCV RNA by electroporation. Briefly, subconfluent Huh7.5 cells were trypsinized, suspended in complete growth medium, and centrifuged at 1,000×g for 5 minutes at 4° C. The cell pellets were then washed twice with ice-cold phosphate-buffered saline (PBS) and suspended at 1.75×10^7 cells/mL in ice-cold PBS. Replicon RNA (5 μg) was mixed with 0.4 mL of cell suspension and transferred to 2 mm gap width electroporation cuvette (EPPENDORF AG, Germany) and pulsed 5 times for 99 μsec at 820 V over 1.1 sec intervals using the ECM 830 electroporator instrument (BTX Harvard Apparatus, Holliston, Mass.). After a 5 minute recovery period at room temperature, cells were transferred to 10 ml complete growth medium, and seeded into 10 cm diameter cell culture dishes. Twenty-four hours after transfection, the medium was replaced with fresh complete DMEM supplemented with 1 mg/ml geneticin (Invitrogen) and the medium was replaced every three to four days with fresh medium containing 1 mg/mL geneticin. Geneticin-resistant colonies were selected for a period of two weeks and expanded in the presence of 250 μg/mL geneticin.
HCV RLuc replicon cells were seeded at a density of 10×10^3 cells per well in 96-well plates and incubated for 4-5 hours to allow the cells to attach to the plate. The compounds dissolved in dimethyl sulfoxide (DMSO) were added at a final concentration of 10 μM (DMSO solvent final concentration was 0.5%) and the cells were incubated for 72 hours at 37° C. under 5% CO2 atmosphere. The effects of compounds on HCV replication were then assessed by measuring the Renilla luciferase activity in compound-treated versus DMSO-treated cells. At the end of the incubation period, the medium was aspirated and the cells were washed with 1×PBS. The Renilla luciferase reporter gene assay was performed using the Renilla luciferase assay kit (PROMEGA, Madison, Wis.) according to the manufacturer's instructions. Briefly, the cells were lysed by addition of 50 μL of 1× Renilla luciferase lysis buffer followed by two cycles of freeze/thaw. The luciferase activity content of the lysate was measured with a FLUOSTAR Omega microplate reader instrument (BMG Labtech, Germany) after injecting 50 μL of luciferase substrate and reading for 5 seconds.
To determine if the above identified compounds might be useful as HCV antiviral agents, they were added to cells harboring HCV subgenomic RNA replicon. The HCV replicon chosen was derived from the same HCV strain (genotype 1b) as the NS3 protein used for screening and enzyme assays. […] 75:4614-4624; Blight, et al. (2002) J. Virol. 76:13001-13014). […]
A general note: In antiviral work, replicon cells carry a viral genome segment that copies itself.

Test [2] deals with T1, NS3h_2a(JFH1) (Hepatitis C virus genotype 2a, UniProt Q99IB8).
T1 construct: truncated C-terminally His-tagged NS3 proteins lacking the N-terminal protease, called NS3h; His-tag (C); made in house
T1 sequence (Q99IB8 1196-1661): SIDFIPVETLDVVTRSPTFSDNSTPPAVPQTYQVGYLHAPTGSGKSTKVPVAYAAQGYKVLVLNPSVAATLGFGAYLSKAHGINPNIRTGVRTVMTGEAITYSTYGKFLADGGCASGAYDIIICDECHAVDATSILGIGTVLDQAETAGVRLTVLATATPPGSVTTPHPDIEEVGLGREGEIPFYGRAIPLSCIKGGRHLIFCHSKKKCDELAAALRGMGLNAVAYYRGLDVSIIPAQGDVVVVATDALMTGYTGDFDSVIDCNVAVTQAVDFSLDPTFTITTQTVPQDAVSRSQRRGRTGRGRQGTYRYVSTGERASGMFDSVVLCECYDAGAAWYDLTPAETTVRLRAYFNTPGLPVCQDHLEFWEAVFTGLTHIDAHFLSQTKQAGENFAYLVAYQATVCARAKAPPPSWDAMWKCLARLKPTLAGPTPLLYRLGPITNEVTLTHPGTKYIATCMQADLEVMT
Kind of test: MBHA, DNA substrate, genotype 2a helicase. It counts as biochemical, hepatitis C virus genotype 2a(JFH1). The procedure:
All oligonucleotides were purchased from Integrated DNA Technologies (IDT, Coralville, Iowa). Primuline derivatives were synthesized and purified as described herein. Three different NS3 proteins were used in this study. Two were truncated C-terminally His-tagged NS3 proteins lacking the N-terminal protease, called NS3h, the third was a full-length NS3 with the portion of NS4A needed for protease activation fused to its N-terminus, called scNS4A-NS3 (Howe, et al. (1999) Protein Sci. 8:1332-41), and the fourth was a 23 kDa scNS4A-NS3 protease fragment lacking the helicase domains, called scNS4A-NS3p (Protein One, Rockville, Md.). NS3h was expressed from two different HCV strains. NS3h_1b(con1) was from the con1 strain of genotype 1b (GENBANK accession AB114136), and NS3h_2a(JFH1) was from the JFH1 strain of HCV genotype 2a (GENBANK accession AJ238799). […] His-tagged recombinant NS3h_1b(con1), NS3h_2a(JFH1), and scNS4A-NS3 (also from genotype 1b(con1)) were expressed, and purified as previously described (Frick, et al. (2010) supra; Lam, et al. (2003) J. Virol. 77:3950-3961). The scNS4A-NS3p (genotype 1b) was from Protein One. A plasmid expressing NS3h from dengue virus strain 2 (NS3h_DV2)(GENBANK accession 2BMF) is known in the art (Xu, et al. (2005) J. Virol. 79:10278-10288), and used to express and purify NS3h_DV2 (Belon, et al. (2010) supra)
Compounds that specifically target less conserved regions of a HCV protein are often not potent inhibitors of the same protein derived from other genotypes, and they might be susceptible to rapid evolution of related viruses. As described herein, primuline derivatives can inhibit HCV helicase isolated from the genotype 1b(con1) strain. Therefore to further analyze specificity, the subset of primuline analogs was tested on the helicase isolated from the genotype 2a(JFH1) strain. The two recombinant proteins differ at 83 of their 480 amino acids. The JHF1 strain is also of interest because it serves as the backbone for HCV strains capable of replicating in cell culture (Wakita, et al. (2005) Nat. Med. 11:791-796). The molecular beacon-based helicase assay (MBHA) (Belon & Frick (2008) supra) was used to measure the ability of each compound to inhibit DNA unwinding catalyzed by NS3h isolated from genotype 2a(JFH1) (NS3h_2a(JFH1)). […] Selected compounds were also tested for the ability to inhibit helicase reactions catalyzed by full-length NS3 and a single chain NS4A-NS3 protein (scNS4A-NS3) described below and used for protease assays.

Where [3] appears, read: Huh7.5, 10 μM compound, triplicate, average ± SD, read-out: HCV replication (% Inh.).
Setting [4] is: Huh7.5, 10 μM, read-out: Replicon (% Inhibition @ 10 μM).
The mark [5] stands for this setting: DNA-based MBHA, genotype 2a(JFH1), read-out: DNA Helicase NS3h_2a IC50 (μM) ± SD.
Setting [6] is: genotype 2a (JFH1), read-out: Target Potency MBHA (IC50 avg., μM) 2a (JFH1) (converted).

In the case of `Cc1ccc2nc(-c3ccc4nc(-c5ccc(NC(=O)c6ccc(C(C)(C)C)cc6)cc5)sc4c3)sc2c1S(=O)(=O)O` [Compound 13, 2′-(4-(4-(tert-butyl)benzamido)phenyl)-6-methyl-[2,6′-bibenzo[d]thiazole]-7-sulfonic acid], the inhibition at 10 µM in test [1] (setting [3]) and in test [1] (setting [4]) was 51 ± 9% in each case. For the same compound, the IC50 in test [2] (setting [5]) and in test [2] (setting [6]) was 5 ± 0.7 µM in each case.

Turning to `Cc1ccc2nc(-c3ccc4nc(-c5ccc(NC(=O)c6ccc(N(C)C)cc6)cc5)sc4c3)sc2c1S(=O)(=O)O` [Compound 14, 2′-(4-(4-(dimethylamino)benzamido)phenyl)-6-methyl-[2,6′-bibenzo[d]thiazole]-7-sulfonic acid], the inhibition at 10 µM in test [1] (setting [3]) and in test [1] (setting [4]) was 22 ± 2% each time. In test [2] (setting [6]), the concentration for half-maximal inhibition (IC50) was 6.4 ± 1.2 µM.

In the case of `Cc1ccc2nc(-c3ccc4nc(-c5ccc(NC(=O)c6ccc(Br)cc6)cc5)sc4c3)sc2c1S(=O)(=O)O` [Compound 15, 2′-(4-(4-bromobenzamido)phenyl)-6-methyl-[2,6′-bibenzo[d]thiazole]-7-sulfonic acid], the inhibition at 10 µM in test [1] (setting [3]) and in test [1] (setting [4]) was 7 ± 18% throughout. For the same compound, the IC50 in test [2] (setting [5]) was 7 ± 3.3 µM; in test [2] (setting [6]) it was 7.4 ± 3 µM.

For `Cc1ccc2nc(-c3ccc4nc(-c5ccc(NC(=O)c6ccc(NC(=O)OCC7c8ccccc8-c8ccccc87)cc6)cc5)sc4c3)sc2c1S(=O)(=O)O` [Compound 16, 2′-(4-(4-((((9H-fluoren-9-yl)methoxy)carbonyl)amino)benzamido)phenyl)-6-methyl-[2,6′-bibenzo[d]thiazole]-7-sulfonic acid], the inhibition at 10 µM in test [1] (setting [3]) and in test [1] (setting [4]) was 57 ± 21% in each case. Besides, in test [2] (setting [6]), the IC50 was 5.8 ± 3.1 µM.

For `Cc1ccc2nc(-c3ccc4nc(-c5ccc(NC(=O)c6cccc(Cl)c6)cc5)sc4c3)sc2c1S(=O)(=O)O` [Compound 17, 2′-(4-(3-chlorobenzamido)phenyl)-6-methyl-[2,6′-bibenzo[d]thiazole]-7-sulfonic acid], the inhibition at 10 µM in test [1] (setting [3]) and in test [1] (setting [4]) was 54 ± 10% each time. For the same compound, the concentration for half-maximal inhibition (IC50) was 4 ± 0.5 µM in test [2] (setting [5]) and 3.9 ± 1 µM in test [2] (setting [6]).

As for `Cc1ccc2nc(-c3ccc4nc(-c5ccc(NC(=O)c6ccc(Cl)c(Cl)c6)cc5)sc4c3)sc2c1S(=O)(=O)O` [Compound 18, 2′-(4-(3,4-dichlorobenzamido)phenyl)-6-methyl-[2,6′-bibenzo[d]thiazole]-7-sulfonic acid], the inhibition at 10 µM in test [1] (setting [3]) and in test [1] (setting [4]) was 43 ± 15% each time. In addition, the IC50 in test [2] (setting [6]) is 4.5 ± 1 µM.

As for `Cc1ccc2nc(-c3ccc4nc(-c5ccc(NC(=O)c6ccccc6C(F)(F)F)cc5)sc4c3)sc2c1S(=O)(=O)O` [Compound 19, 6-methyl-2′-(4-(2-(trifluoromethyl)benzamido)phenyl)-[2,6′-bibenzo[d]thiazole]-7-sulfonic acid], the inhibition at 10 µM is 0% in test [1] (setting [3]) and 0.3 ± 9% in test [1] (setting [4]). For the same compound, the IC50 in test [2] (setting [6]) was 24.3 ± 9 µM.

In the case of `Cc1ccc2nc(-c3ccc4nc(-c5ccc(NC(=O)c6cccc(C(F)(F)F)c6)cc5)sc4c3)sc2c1S(=O)(=O)O` [Compound 20, 6-methyl-2′-(4-(3-(trifluoromethyl)benzamido)phenyl)-[2,6′-bibenzo[d]thiazole]-7-sulfonic acid], the inhibition at 10 µM in test [1] (setting [3]) and in test [1] (setting [4]) was 41 ± 8% throughout. In addition, the IC50 in test [2] (setting [6]) is 15.9 ± 2 µM.

On to `Cc1ccc2nc(-c3ccc4nc(-c5ccc(NC(=O)c6c(F)cccc6C(F)(F)F)cc5)sc4c3)sc2c1S(=O)(=O)O` [Compound 21, 2′-(4-(2-fluoro-6-(trifluoromethyl)benzamido)phenyl)-6-methyl-[2,6′-bibenzo[d]thiazole]-7-sulfonic acid], for which the inhibition at 10 µM in test [1] (setting [3]) and in test [1] (setting [4]) was 55 ± 7% in each case. Also, the IC50 in test [2] (setting [6]) was 54 ± 19.7 µM.

The term IC50 denotes the concentration that gives 50% inhibition.
